The text below walks through data of patent US20260317324A1, “BIFUNCTIONAL COMPOUNDS FOR DEGRADING BRAF VIA UBIQUITIN PROTEOSOME PATHWAY” (Nurix Therapeutics, Inc., priority 2023, published 2026).

One may read the DC50 as the concentration at which degradation of the target reaches its halfway point. Read a high DC50 as degradation only at high concentration. As a reminder, the Dmax is the greatest extent of degradation seen.

SMILES strings stand for the structures.

Holding throughout (type): cell-based
One assay concerns the target T1, BRAF D594G (Homo sapiens, UniProt P15056, D594G).
T1 construct: Horizon Discovery (HCT-116 BRAF−/− cells); host or cells: HCT-116 BRAF−/− cells, clone 63, lentiviral transduction
Put plainly: BRAF HiBiT degradation assay, C-terminal HiBiT-tagged BRAF D594G overexpressed in HCT-116 BRAF−/− cells (clone 63), Nano-Glo HiBiT Lytic assay. In a few lines:
(§1)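 First, the stable HiBiT-tagged cells were plated and incubated for 24 h. Next, compound was added in duplicate as an 11-point series with a 1 μM top concentration. Lytic detection followed, with DMSO-treated parental cells used for background. Finally, DC50 and Obs. Dmax relative to DMSO were derived from the % protein remaining curves.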

A further assay deals with T2, BRAF G469A (Homo sapiens, UniProt P15056, G469A).
T2 construct: Horizon Discovery (HCT-116 BRAF−/− cells); host or cells: HCT-116 BRAF−/− cells, clone 34, lentiviral transduction
T2 sequence (P15056 whole entry G469A): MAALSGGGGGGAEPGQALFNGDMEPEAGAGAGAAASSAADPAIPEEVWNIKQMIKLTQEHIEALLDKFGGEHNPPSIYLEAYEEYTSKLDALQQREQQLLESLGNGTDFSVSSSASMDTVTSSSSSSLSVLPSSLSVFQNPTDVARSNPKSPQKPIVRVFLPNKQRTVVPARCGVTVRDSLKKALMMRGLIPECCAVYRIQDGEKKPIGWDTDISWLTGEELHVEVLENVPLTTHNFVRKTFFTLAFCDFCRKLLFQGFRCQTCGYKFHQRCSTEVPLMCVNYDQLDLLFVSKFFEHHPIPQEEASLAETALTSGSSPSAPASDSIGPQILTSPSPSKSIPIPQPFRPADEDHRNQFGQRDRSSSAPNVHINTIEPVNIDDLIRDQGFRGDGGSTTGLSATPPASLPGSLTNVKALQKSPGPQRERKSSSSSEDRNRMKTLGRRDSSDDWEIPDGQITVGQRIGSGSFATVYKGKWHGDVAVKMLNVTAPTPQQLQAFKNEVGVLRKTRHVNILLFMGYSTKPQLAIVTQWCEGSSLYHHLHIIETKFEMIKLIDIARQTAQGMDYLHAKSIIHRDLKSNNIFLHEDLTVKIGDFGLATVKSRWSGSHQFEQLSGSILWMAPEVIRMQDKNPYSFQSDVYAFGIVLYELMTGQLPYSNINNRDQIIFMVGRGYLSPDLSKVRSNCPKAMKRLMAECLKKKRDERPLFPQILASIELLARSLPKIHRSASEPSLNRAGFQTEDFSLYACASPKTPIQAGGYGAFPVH
Briefly: BRAF HiBiT degradation assay, C-terminal HiBiT-tagged BRAF G469A overexpressed in HCT-116 BRAF−/− cells (clone 34), Nano-Glo HiBiT Lytic assay. An outline of the steps:
as §1
For orientation: With HiBiT, luminescence reflects the tagged protein that the partner subunit can reach.

Another assay deals with T3, BRAF V600E (Homo sapiens, UniProt P15056, V600E).
T3 construct: endogenous C-terminal HiBiT fusion tag on BRAF V600E allele; endogenous in cells; host or cells: A375 clone 1F10 (CRISPR-Cas9 knock-in of the HiBiT tag; parental A375 from ATCC)
T3 sequence (P15056 whole entry V600E, the tested form may be a part): as the sequence (P15056 whole entry G469A) above, with A469G, V600E counted along it
Put plainly: BRAF HiBiT degradation assay, C-terminal HiBiT-tagged BRAF V600E A375 cells (clone 1F10), Nano-Glo HiBiT Lytic assay. To be noted: for Dmax: A-375. An outline of the steps:
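Degradation is measured as loss of HiBiT signal from BRAF V600E tagged at its native locus in A375 cells. Doses span 1 μM to 0.01 nM in half-log steps, in duplicate. Percent remaining is calculated against DMSO controls after subtracting untagged A375 background, and curve fitting yields DC50 and observed Dmax.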

For a further assay, the target named is T4, BRAF G466V (Homo sapiens, UniProt P15056, G466V).
T4 construct: Horizon Discovery (HCT-116 BRAF−/− cells); host or cells: HCT-116 BRAF−/− cells, clone 8, lentiviral transduction
T4 sequence (P15056 whole entry G466V): as the sequence (P15056 whole entry G469A) above, with G466V, A469G counted along it
Briefly: BRAF HiBiT degradation assay, C-terminal HiBiT-tagged BRAF G466V overexpressed in HCT-116 BRAF−/− cells (clone 8), Nano-Glo HiBiT Lytic assay. In a few lines: as §1

The mark [1] stands for this setting: BRAF D594G (Class 3), HCT-116 BRAF−/− cells, DC50 at 50% degradation.
[2] abbreviates: BRAF D594G (Class 3), HCT-116 BRAF−/− cells, observed Dmax relative to DMSO control.
The mark [3] stands for this setting: BRAF G469A (Class 2), HCT-116 BRAF−/− cells, DC50 at 50% degradation.
[4] abbreviates: BRAF G469A (Class 2), HCT-116 BRAF−/− cells, observed Dmax relative to DMSO control.
The mark [5] stands for this setting: A375 (BRAF V600E, Class 1), DC50 at 50% degradation.
Where [6] appears, read: A375 (BRAF V600E, Class 1), observed Dmax, % protein degraded relative to DMSO control.
The mark [7] stands for this setting: BRAF G466V (Class 3), HCT-116 BRAF−/− cells, DC50 at 50% degradation.
Where [8] appears, read: BRAF G466V (Class 3), HCT-116 BRAF−/− cells, observed Dmax relative to DMSO control.
[9] abbreviates: BRAF D594G, DC50 at 50%: fitted conc. at Y=50.
[10] abbreviates: HCT-116, BRAF D594G, percentage protein degraded at maximal compound effect relative to DMSO.
Where [11] appears, read: Class 2, BRAF G469A, DC50 at 50%: fitted conc. at Y=50.
Setting [12] is: HCT-116, Class 2, BRAF G469A, percentage protein degraded at maximal compound effect relative to DMSO.
[13] abbreviates: A375 (BRAF V600E), DC50 at 50%: fitted conc. at Y=50.
Setting [14] is: A375 (BRAF V600E), percentage protein degraded at maximal compound effect relative to DMSO.
Where [15] appears, read: BRAF G466V, DC50 at 50%: fitted conc. at Y=50.
The mark [16] stands for this setting: HCT-116, BRAF G466V, percentage protein degraded at maximal compound effect relative to DMSO.

T1 sequence (P15056 whole entry D594G): as the sequence (P15056 whole entry G469A) above, with A469G, D594G counted along it

For the molecule `O=C1CCC(c2ccc(N3CCC(CN4CCN(c5cnc(-n6cc(-c7cc(Cl)cc(NS(=O)(=O)N8CCCC8)c7F)c(-c7ccncc7)n6)nc5)CC4)CC3)nc2)C(=O)N1` (racemic) [Compound 359, Rac-N-{5-chloro-3-[1-(5-{4-[(1-{5-[(3R)-2,6-dioxopiperidin-3-yl]pyridin-2-yl}piperidin-4-yl)methyl]piperazin-1-yl}pyrimidin-2-yl)-3-(pyridin-4-yl)-1H-pyrazol-4-yl]-2-fluorophenyl}pyrrolidine-1-sulfonamide], the DC50 on BRAF D594G (setting [1]), at BRAF G469A (setting [3]), on BRAF V600E (setting [5]) and on BRAF G466V (setting [7]) was < 10 nM in each case. Besides, the greatest degradation seen (Dmax) on BRAF D594G (setting [2]), at BRAF G469A (setting [4]), on BRAF V600E (setting [6]) and on BRAF G466V (setting [8]) was > 70% each time.

With `CCCS(=O)(=O)Nc1cccc(-c2nc(C(C)(C)C)sc2-c2ccnc(Nc3cnn(CC4CCN(CC5CCN(c6ccc7c(=O)n(C8CCC(=O)NC8=O)ccc7c6)CC5)CC4)c3)n2)c1F` (racemic) [Compound 83, Rac-N-{3-[2-tert-butyl-5-(2-{[1-({1-[(1-{2-[(3R)-2,6-dioxopiperidin-3-yl]-1-oxo-1,2-dihydroisoquinolin-6-yl}piperidin-4-yl)methyl]piperidin-4-yl}methyl)-1H-pyrazol-4-yl]amino}pyrimidin-4-yl)-1,3-thiazol-4-yl]-2-fluorophenyl}propane-1-sulfonamide], the DC50 was 50 to 500 nM on BRAF D594G (setting [9]), 50 to 500 nM on BRAF G469A (setting [11]), < 10 nM at BRAF V600E (setting [13]) and 50 to 500 nM on BRAF G466V (setting [15]). For the same molecule, the Dmax on BRAF D594G (setting [10]) was < 30%; on BRAF G469A (setting [12]), < 30%; on BRAF V600E (setting [14]) it was > 70%; on BRAF G466V (setting [16]) it was < 30%.

Take `O=C1CCC(c2cc(F)c(N3CCC(CN4CCN(c5ccc(-n6cc(-c7cc(Cl)cc(NS(=O)(=O)N8CCCC8)c7F)c(-c7ccncc7)n6)cc5)CC4)CC3)cc2F)C(=O)N1` (racemic) [Compound 386, Rac-N-{5-chloro-3-[1-(4-{4-[(1-{4-[(3R)-2,6-dioxopiperidin-3-yl]-2,5-difluorophenyl}piperidin-4-yl)methyl]piperazin-1-yl}phenyl)-3-(pyridin-4-yl)-1H-pyrazol-4-yl]-2-fluorophenyl}pyrrolidine-1-sulfonamide]: the half-maximal degradation concentration (DC50) at BRAF D594G (setting [1]) was in the range of 10 to 50 nM; at BRAF G469A (setting [3]), 50 to 500 nM; on BRAF V600E (setting [5]), 10 to 50 nM; on BRAF G466V (setting [7]) it was 10 to 50 nM. The Dmax was 30 to 70% on BRAF D594G (setting [2]), 30 to 70% on BRAF G469A (setting [4]), > 70% on BRAF V600E (setting [6]) and > 70% on BRAF G466V (setting [8]).

`CCCS(=O)(=O)Nc1cccc(-c2nc(C(C)(C)C)sc2-c2ccnc(Nc3ccc(N4CCN(CC5CCN(c6ccc([C@H]7CCC(=O)NC7=O)cc6)CC5)CC4)cc3)n2)c1F` [Compound 59, N-[3-(2-tert-butyl-5-{2-[(4-{4-[(1-{4-[(3R)-2,6-dioxopiperidin-3-yl]phenyl}piperidin-4-yl)methyl]piperazin-1-yl}phenyl)amino]pyrimidin-4-yl}-1,3-thiazol-4-yl)-2-fluorophenyl]propane-1-sulfonamide]: the DC50 at BRAF D594G (setting [9]) was 10 to 50 nM; at BRAF G469A (setting [11]), > 500 nM; on BRAF V600E (setting [13]) it was 10 to 50 nM; at BRAF G466V (setting [15]), < 10 nM. Besides, the Dmax is 30 to 70% on BRAF D594G (setting [10]), 30 to 70% at BRAF G469A (setting [12]), > 70% at BRAF V600E (setting [14]) and > 70% on BRAF G466V (setting [16]).

Take `C[C@@H]1CN(c2ccc(-n3cc(-c4cc(Cl)cc(NS(=O)(=O)N5CC[C@@H](F)C5)c4F)c(-c4ccncc4)n3)nc2)CCN1CC1CCN(c2ccc(C3CCC(=O)NC3=O)cn2)CC1` (mixture of isomers) [Compound 321, (3R)—N-[5-chloro-3-(1-{5-[(3R)-4-[(1-{5-[(3RS)-2,6-dioxopiperidin-3-yl]pyridin-2-yl}piperidin-4-yl)methyl]-3-methylpiperazin-1-yl]pyridin-2-yl}-3-(pyridin-4-yl)-1H-pyrazol-4-yl)-2-fluorophenyl]-3-fluoropyrrolidine-1-sulfonamide]: the DC50 at BRAF D594G (setting [1]), at BRAF G469A (setting [3]), at BRAF V600E (setting [5]) and at BRAF G466V (setting [7]) was < 10 nM each time. Besides, the maximal degradation (Dmax) on BRAF D594G (setting [2]), at BRAF G469A (setting [4]), on BRAF V600E (setting [6]) and on BRAF G466V (setting [8]) was > 70% throughout.

For the molecule `CCCS(=O)(=O)Nc1cccc(-c2nc(C(C)(C)C)sc2-c2ccnc(Nc3cccc(OC4CCN(C(=O)CN5CCC(c6ccc(NC7CCC(=O)NC7=O)cc6)CC5)CC4)c3)n2)c1F` (racemic) [Compound 96, Rac-N-(3-{2-tert-butyl-5-[2-({3-[(1-{2-[4-(4-{[(3R)-2,6-dioxopiperidin-3-yl]amino}phenyl)piperidin-1-yl]acetyl}piperidin-4-yl)oxy]phenyl}amino)pyrimidin-4-yl]-1,3-thiazol-4-yl}-2-fluorophenyl)propane-1-sulfonamide], the half-maximal degradation concentration (DC50) is > 500 nM at BRAF D594G (setting [9]), > 500 nM on BRAF G469A (setting [11]), 10 to 50 nM on BRAF V600E (setting [13]) and > 500 nM at BRAF G466V (setting [15]). The maximal degradation (Dmax) on BRAF D594G (setting [10]) was 30 to 70%; at BRAF G469A (setting [12]) it was 30 to 70%; on BRAF V600E (setting [14]), > 70%; on BRAF G466V (setting [16]) it was 30 to 70%.

Consider `CCCS(=O)(=O)Nc1cc(Cl)cc(-c2cn(-c3ccc(N4CCN(CC5CCN(c6ccc(C7CCC(=O)NC7=O)cn6)CC5)[C@@H](C)C4)cc3)nc2-c2ccncc2)c1F` (mixture of isomers) [Compound 279, N-[5-chloro-3-(1-{4-[(3S)-4-[(1-{5-[(3RS)-2,6-dioxopiperidin-3-yl]pyridin-2-yl}piperidin-4-yl)methyl]-3-methylpiperazin-1-yl]phenyl}-3-(pyridin-4-yl)-1H-pyrazol-4-yl)-2-fluorophenyl]propane-1-sulfonamide], for which the half-maximal degradation concentration (DC50) was < 10 nM at BRAF D594G (setting [1]), 10 to 50 nM on BRAF G469A (setting [3]), < 10 nM on BRAF V600E (setting [5]) and < 10 nM on BRAF G466V (setting [7]). Besides, the greatest degradation seen (Dmax) on BRAF D594G (setting [2]) was 30 to 70%; on BRAF G469A (setting [4]), 30 to 70%; at BRAF V600E (setting [6]), > 70%; at BRAF G466V (setting [8]) it was > 70%.

For the molecule `CCCS(=O)(=O)Nc1cc(Cl)cc(-c2cn(-c3ccc(N4CCN(CC5CCN(c6ccc([C@H]7CCC(=O)NC7=O)cc6)CC5)[C@@H](C)C4)cc3)nc2-c2ccncc2)c1F` [Compound 278, N-[5-chloro-3-(1-{4-[(3S)-4-[(1-{4-[(3R)-2,6-dioxopiperidin-3-yl]phenyl}piperidin-4-yl)methyl]-3-methylpiperazin-1-yl]phenyl}-3-(pyridin-4-yl)-1H-pyrazol-4-yl)-2-fluorophenyl]propane-1-sulfonamide], the DC50 on BRAF D594G (setting [1]) was 50 to 500 nM; at BRAF G469A (setting [3]), > 500 nM; at BRAF V600E (setting [5]), < 10 nM; on BRAF G466V (setting [7]), < 10 nM. Also, the greatest degradation seen (Dmax) at BRAF D594G (setting [2]) was 30 to 70%; on BRAF G469A (setting [4]), 30 to 70%; at BRAF V600E (setting [6]), > 70%; at BRAF G466V (setting [8]), > 70%.

With `O=C1CCN(c2ccc(N3CCC(CN4CCN(c5cnc(-n6cc(-c7cc(Cl)cc(NS(=O)(=O)N8CCCC8)c7F)c(-c7ccncc7)n6)nc5)CC4)CC3)cc2)C(=O)N1` [Compound 358, N-[5-chloro-3-(1-{5-[4-({1-[4-(2,4-dioxo-1,3-diazinan-1-yl)phenyl]piperidin-4-yl}methyl)piperazin-1-yl]pyrimidin-2-yl}-3-(pyridin-4-yl)-1H-pyrazol-4-yl)-2-fluorophenyl]pyrrolidine-1-sulfonamide], the DC50 was < 10 nM at BRAF D594G (setting [1]), > 500 nM on BRAF G469A (setting [3]), < 10 nM on BRAF V600E (setting [5]) and 10 to 50 nM on BRAF G466V (setting [7]). The greatest degradation seen (Dmax) on BRAF D594G (setting [2]) was 30 to 70%; on BRAF G469A (setting [4]) it was 30 to 70%; on BRAF V600E (setting [6]), > 70%; at BRAF G466V (setting [8]) it was 30 to 70%.
